Laboratory results from paper PMC3098721 (Molecular microbiology, 2010).

Target: PqsH (MBP-PqsH) (Pseudomonas aeruginosa, UniProt Q02N79)
Assay: PQS fluorescence after ethyl acetate extraction, Michaelis-Menten fit
Assay type: biochemical
Details: NADH and O2 constant at saturating levels; pH 8.0

Sequence of PqsH (MBP-PqsH) (Q02N79 2-382): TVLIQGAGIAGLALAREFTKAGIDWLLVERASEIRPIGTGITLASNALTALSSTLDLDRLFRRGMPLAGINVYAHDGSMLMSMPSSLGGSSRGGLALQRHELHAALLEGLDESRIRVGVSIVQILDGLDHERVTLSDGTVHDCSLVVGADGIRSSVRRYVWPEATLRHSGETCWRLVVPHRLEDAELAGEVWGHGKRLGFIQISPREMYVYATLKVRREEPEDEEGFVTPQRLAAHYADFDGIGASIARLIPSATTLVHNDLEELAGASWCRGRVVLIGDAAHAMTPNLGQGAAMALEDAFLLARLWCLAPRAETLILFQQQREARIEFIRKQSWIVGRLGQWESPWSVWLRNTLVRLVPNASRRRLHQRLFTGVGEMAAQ

CCCc1cc(=O)c2ccccc2[nH]1 [C3-HHQ]
Km: almost entirely due to elevated Km values
